Laboratory results taken from the supplement of paper PMC10307832.

Experiments:
Experiment in all cases: relative viability (nuclei count vs DMSO), 5 days (fraction); higher = more cells survive
Dasatinib + Luminespib = compound: Cc1nc(Nc2ncc(C(=O)Nc3c(C)cccc3Cl)s2)cc(N2CCN(CCO)CC2)n1 [Dasatinib] + CCNC(=O)c1noc(-c2cc(C(C)C)c(O)cc2O)c1-c1ccc(CN2CCOCC2)cc1 [Luminespib] (partner 0.01 µM)
Summary of the method: (§1)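 Values are medians from duplicate plates. Each reflects relative viability, defined as the nuclei count of treated wells over that of vehicle wells. Lung cancer cell lines in 1536-well plates were pin-tool dosed one day after seeding with one drug alone or with a fixed anchor-drug dose plus five library-drug doses (not always all listed) in √10 steps, then fixed, stained and imaged at 4× after 5 days.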

ALW-II-49-7 + Alpelisib = compound: Cc1ccc(C(=O)Nc2cccc(C(F)(F)F)c2)cc1Nc1cncc(C(N)=O)c1 [ALW-II-49-7] + Cc1nc(NC(=O)N2CCC[C@H]2C(N)=O)sc1-c1ccnc(C(C)(C)C(F)(F)F)c1 [Alpelisib] (partner 2 µM)
Summary of the method: as §1

XMD13-2 + Bortezomib = compound: C1CC1C(=O)NC2=NNC3=C2C=CC(=C3)C4=CC(=CC=C4)C(=O)NC5CC5 [XMD13-2] + CC(C)C[C@H](NC(=O)[C@H](Cc1ccccc1)NC(=O)c1cnccn1)B(O)O [Bortezomib] (partner 0.002 µM)
Summary of the method: as §1

XMD13-2 + Pemetrexed = compound: C1CC1C(=O)NC2=NNC3=C2C=CC(=C3)C4=CC(=CC=C4)C(=O)NC5CC5 [XMD13-2] + Nc1nc2[nH]cc(CCc3ccc(C(=O)N[C@@H](CCC(=O)O)C(=O)O)cc3)c2c(=O)[nH]1 [Pemetrexed] (partner 0.2 µM)
Summary of the method: as §1

Cell Line | relative viability (Dasatinib + Luminespib; first compound 0.005 µM) | relative viability (Dasatinib + Luminespib; first compound 0.01581 µM) | relative viability (Dasatinib + Luminespib; first compound 0.05 µM) | relative viability (Dasatinib + Luminespib; first compound 0.1581 µM) | relative viability (Dasatinib + Luminespib; first compound 0.5 µM) | relative viability (ALW-II-49-7 + Alpelisib; first compound 0.08 µM) | relative viability (ALW-II-49-7 + Alpelisib; first compound 0.253 µM) | relative viability (ALW-II-49-7 + Alpelisib; first compound 0.8 µM) | relative viability (ALW-II-49-7 + Alpelisib; first compound 2.53 µM) | relative viability (ALW-II-49-7 + Alpelisib; first compound 8 µM) | relative viability (XMD13-2 + Bortezomib; first compound 0.05 µM) | relative viability (XMD13-2 + Bortezomib; first compound 0.1581 µM) | relative viability (XMD13-2 + Bortezomib; first compound 0.5 µM) | relative viability (XMD13-2 + Bortezomib; first compound 1.581 µM) | relative viability (XMD13-2 + Bortezomib; first compound 5 µM) | relative viability (XMD13-2 + Pemetrexed; first compound 0.05 µM) | relative viability (XMD13-2 + Pemetrexed; first compound 0.1581 µM) | relative viability (XMD13-2 + Pemetrexed; first compound 0.5 µM) | relative viability (XMD13-2 + Pemetrexed; first compound 1.581 µM) | relative viability (XMD13-2 + Pemetrexed; first compound 5 µM)
HARA | 0.774 | 0.552 | 0.413 | 0.207 | 0.133 | 0.904 | 0.883 | 0.844 | 0.834 | 0.987 | 1.31 | 1.11 | 0.671 | 1.17 | 1.17 | 0.224 | 0.273 | 0.269 | 0.208 | 0.323
NCI-H727 | 0.255 | 0.425 | 0.334 | 0.237 | 0.244 | 0.716 | 0.572 | 0.538 | 0.678 | 0.541 | 0.996 | 0.936 | 0.792 | 0.982 | 1.03 |  |  |  |  | 
NCI-H1650 | 0.228 | 0.199 | 0.236 | 0.177 | 0.187 |  |  |  |  |  | 0.22 | 0.201 | 0.198 | 0.195 | 0.191 | 0.351 | 0.388 | 0.348 | 0.418 | 0.395
NCI-H358 | 0.215 | 0.169 | 0.253 | 0.262 | 0.136 | 0.718 | 0.802 | 0.925 | 0.965 | 0.902 |  |  |  |  |  | 0.171 | 0.168 | 0.175 | 0.179 | 0.166
Calu-6 |  |  |  |  |  | 1.04 | 0.984 | 0.95 | 0.91 | 0.791 | 1 | 1.04 | 1.1 | 0.871 | 0.789 |  |  |  |  | 
NCI-H1395 | 0.684 | 0.627 | 0.663 | 0.443 | 0.363 | 1.22 | 1.1 | 1.04 | 0.307 | 1.09 |  |  |  |  |  | 0.93 | 0.998 | 0.879 | 0.876 | 0.911
NCI-H1623 | 0.414 | 0.401 | 0.49 | 0.412 | 0.319 |  |  |  |  |  |  |  |  |  |  |  |  |  |  | 
LK-2 | 0.188 | 0.194 | 0.156 | 0.158 | 0.195 | 1.14 | 1.09 | 1.02 | 0.74 | 0.967 |  |  |  |  |  | 0.297 | 0.284 | 0.266 | 0.291 | 0.393
NCI-H1299 |  |  |  |  |  | 1.08 | 0.974 | 1.11 | 1.17 | 0.968 | 1.02 | 1.05 | 1.05 | 1.05 | 1.11 |  |  |  |  | 
ChaGo-K-1 | 0.555 | 0.543 | 0.591 | 0.486 | 0.366 |  |  |  |  |  | 1.09 | 1.02 | 1.02 |  | 0.911 | 0.255 | 0.267 | 0.259 | 0.253 | 0.264
NCI-H1703 |  |  |  |  |  | 0.331 | 0.322 | 0.258 | 0.297 | 0.182 | 0.47 | 0.597 | 0.407 | 0.228 | 0.195 |  |  |  |  | 
NCI-H522 | 1.16 | 0.913 | 1.08 | 0.775 | 0.923 |  |  |  |  |  |  |  |  |  |  | 1.24 | 1.05 | 1.1 | 1.08 | 0.886
NCI-H1793 | 0.164 | 0.14 | 0.148 | 0.128 | 0.104 | 0.717 | 0.673 | 0.752 | 0.716 | 0.884 |  |  |  |  |  | 1.26 | 0.83 | 0.94 | 0.859 | 0.97
ABC-1 | 0.562 | 0.52 | 0.314 | 0.411 | 0.293 | 0.945 | 0.937 | 1.06 | 0.967 | 0.973 | 0.331 | 0.319 | 0.261 | 0.289 | 0.296 |  |  |  |  | 
IA-LM |  |  |  |  |  | 0.768 | 0.523 | 0.653 | 0.321 | 0.112 | 0.907 | 0.79 | 0.825 | 0.829 | 0.398 |  |  |  |  | 
SW 900 | 0.141 | 0.154 | 0.159 | 0.111 | 0.103 |  |  |  |  |  |  |  |  |  |  | 0.485 | 0.502 | 0.508 | 0.493 | 0.529
HCC-366 |  |  |  |  |  | 0.392 | 0.605 | 0.417 | 0.356 | 0.579 | 1.24 | 0.988 | 0.969 | 1.04 | 1.04 | 0.147 | 0.175 | 0.164 | 0.172 | 0.187
HCC-78 |  |  |  |  |  | 0.275 | 0.309 | 0.351 | 0.325 | 0.337 | 0.464 | 0.551 | 0.349 | 0.553 | 0.516 | 0.921 | 0.918 | 0.883 | 0.962 | 0.964
NCI-H2342 | 0.769 | 0.548 | 0.439 | 0.437 | 0.281 |  |  |  |  |  |  |  |  |  |  | 0.806 | 0.711 | 0.772 | 0.72 | 0.775
NCI-H1944 | 0.73 | 0.625 | 0.609 | 0.448 | 0.129 | 0.817 | 0.836 | 0.807 | 0.916 | 0.941 |  |  |  |  |  | 0.74 | 0.573 | 0.622 | 0.875 | 0.642
